Literature values, collected in patent US11166911B2, “Parenteral dosage form of amiodarone” (SUN PHARMACEUTICAL INDUSTRIES LIMITED, priority 2016, dated 2021).

Settings: Parmar et al. 1997

In the case of CCCCc1oc2ccccc2c1C(=O)c1cc(I)c(OCCN(CC)CC)c(I)c1 [Amidarone], the “Degradation upon storage at higher temperatures” value is given as “degrade significantly”.
